Entries after “also recorded” stand apart in the source; their conditions may differ. Bridge positions count the residues as written; N and C are the ends. Ends that are not written are not given here.
Columns and labels:
[1] = test system: semi-isolated heart preparations; experiment: Semi-isolated heart preparation bioassay; set-up: species or system Carcinus maenas; details: 10^−6 mol l^−1 in saline, 20°C, recorded about 2 min; four preparations
From the text: To determine possible myotropic and/or myoinhbitory activity of AST-C, AST-CC and AST-CCC, inter-molt crabs (∼65 mm carapace width) were ice-anaesthetized and rapidly decerebrated before removing all limbs and the dorsal carapace to expose the heart and pericardial cavity. The preparation was then fitted into a bowl lined with tissue, to provide a stable saline-flooded environment. The heart was connected to a force transducer (MLT0210/A) via a micro-fishing hook (size 28) and fine nylon (0.08 mm) monofilament. Connection to a PC with Chart 4.0 software was via a Bridge Pod (ML301) and Powerlab 4/20 (AD Instruments, Castle Hill, NSW, Australia). Transducer gain was set at maximum sensitivity (200 μV). Heart preparations were initially perfused with Carcinus physiological saline ([Saver et al., 1999]) at room temperature (20°C). Once a stable output was achieved, hearts were then perfused by sequentially adding approximately 2 ml saline containing AST-C, AST-CC and AST-CCC (GenScript Biotech, Piscataway, NJ, USA), and finally adding CCAP as a positive control (all peptides were at a concentration of 10^−6 mol l^−1 in saline). Each peptide addition was followed by extensive washout with saline, recording heart rate and beat amplitude for approximately 2 min after application of each peptide.

AST-CRd (TR71151) = experiment: Aequorin luminescence receptor assay, CHO-K1-Aeq-Gα16 cells transiently expressing AST-CRd; assay type: cell-based, Carcinus maenas
From the text: (§1) The transcriptome of neural tissue of C. maenas, which has been previously assembled ([Oliphant et al., 2018]), identified four putative AST-C receptor candidates: TR71151a-d ([Oliphant et al., 2018]). These were chemically synthesized with a modified 5′ Kozak sequence (GAATTCGCCACC) and cloned in frame into a pcDNA3.1(+) plasmid vector (Genscript, Piscataway, NJ, USA). Separate aliquots of OneShot TOP10® E. coli cells (Invitrogen, Paisley, UK) were transformed with the plasmids and grown on LB plates containing 100 µg ml^−1 ampicillin overnight at 37°C. Positive clones were cultured overnight in LB broth with 100 µg ml^−1 ampicillin at 37°C and plasmids extracted using a Qiagen Plasmid Midiprep kit according to the manufacturer's instructions. Purified plasmids were re-sequenced (MWG Eurofins, Ebersberg, Germany) and analyzed using Geneious 9.1.8 ([Kearse et al., 2012]).
Chinese hamster ovary (CHO-K1) cells containing stably expressed apoaequorin (Perkin Elmer, Boston, MA) and either Gα16 or Gq subunit (control cells) were cultured in Dulbecco's Modified Eagle Medium (DMEM) F-12 Nutrient Mixture Glutamax (Gibco®) supplemented with 10% fetal bovine serum (Gibco®). Cells were maintained in vented T75 flasks at 37°C in 5% CO2. Cells grown in a monolayer to approximately 60% confluency were transfected with pcDNA 3.1 constructs using FugeneHD® (Promega) according to the manufacturer's recommendations. Transfection medium was prepared by combining 800 µl Opti-MEM® (Gibco) with 10 µg vector and the cells further incubated overnight. Cells were detached from the culture flask by incubating for 10 min in 5 ml 0.2% EDTA in PBS, washed in 10 ml clear DMEM–F-12 containing L-glutamine and 15 mmol l^−1 HEPES, centrifuged (for 5 min at 260 g) and resuspended at a concentration of 5×10^6 cells ml^−1 in 0.2 µm filtered BSA medium (DMEM–F-12 containing L-glutamine, 15 mmol l^−1 HEPES and 0.1% BSA). Coelenterazine h (Invitrogen, Paisley, UK) was added to give a concentration of 5 µmol l^−1, and the cells incubated in the dark at room temperature with gentle rocking. Before the assay, cells were further diluted (10-fold) and incubated for 60 min before use. Dried aliquots of peptides were reconstituted in BSA medium, and 50 µl added in quadruplicate to a white 96-well plate (Optiplate®, Perkin Elmer). Cell suspensions were gently stirred and injected (50 µl per well) using a Mithras LB 940 microplate reader (Berthold Technologies, Bad Wildbad, Germany) and light emission (Ca^2+ response recorded for 30 s). Cells were then lysed by injection of 50 µl per well 0.3% Triton-X in BSA medium, and light emission recorded for a further 10 s to measure total Ca^2+ response. BSA medium was used for blank measurements (six replicates per plate) and transfection with empty vectors was used for negative controls. Data were analyzed using Mikrowin 2010 v5 (Mikrotek Laborsysteme, Overath, Germany) and SigmaPlot v15 (Systat Software, Grafiti, Slough, UK).

Y-organs = experiment: Y-organ in vitro bioassay of ecdysteroid synthesis (ecdysteroid RIA); assay type: cell-based, Carcinus maenas; details: native MIH 2 nmol l^−1, 24 h incubation, positive control
Method: To determine the possible activity of AST-C and/or AST-CC on ecdysteroid synthesis, Y-organs (YOs) were dissected from ice-anaesthetized crabs and used in the in vitro bioassay as detailed previously ([Webster, 1986]). Following 24 h incubations, culture medium was aspirated and snap frozen in liquid nitrogen prior to ecdysteroid RIA. YOs were sonicated in PBS, centrifuged (13,000 g for 5 min at room temperature) and assayed for protein concentration using a BCA protein kit (EMD Millipore, Burlington MA, USA). Protein concentrations (BSA standards) were used to normalize ecdysteroid synthesis between YO pairs.
Ecdysteroid RIAs were performed on 20 µl aliquots of culture medium using the following conditions: 100 μl 1:2000 anti-ecdysteroid serum HB-2E (a kind gift from R. D Watson, Alabama University), 100 µl H^−3 Ponasterone A [24, 25, 26, 27-3H (N), 3.5 TBq mmol^−1 (American Radiochemical Company, St Louis, MO, USA)] at 28,000 dpm per tube. 25-Deoxyecdysone (a kind gift from Prof. R. Lafont, Sorbonne University, Paris) was used as a standard (range 2500–19.5 pg per tube), and unknowns and standards were assayed in triplicate. Bound was separated from free using 50 µl per tube immobilized donkey anti-rabbit nitrocellulose suspension (Sac-Cel), as detailed for the AST-C RIA. Pellets were resuspended in 600 µl Hi-Safe 3 (Perkin Elmer) prior to counting. Using this RIA, both ecdysone and 25-deoxyecdysone (the two ecdysteroids synthesized by C. maenas YOs) were equally recognized.

[2] = test system: putative AST-C receptor candidates TR71151a-d other than AST-CR(d); experiment: Aequorin luminescence receptor assay, other putative AST-C receptor candidates; assay type: cell-based, Carcinus maenas; details: each candidate transiently expressed in CHO-K1-Aeq cells; 1µM peptide (Fig. S3)
From the text: as §1, with “Positive clones were cultured overnight in LB broth with 100 µg ml^−1 ampicillin at 37°C and plasmids extracted using a Qiagen Plasmid Midiprep kit according to the manufacturer's instructions.” left out
Chinese hamster ovary (CHO-K1) cells containing stably expressed apoaequorin (Perkin Elmer, Boston, MA) and either Gα16 or Gq subunit (control cells) were cultured in Dulbecco's Modified Eagle Medium (DMEM) F-12 Nutrient Mixture Glutamax (Gibco®) supplemented with 10% fetal bovine serum (Gibco®). […] Cell suspensions were gently stirred and injected (50 µl per well) using a Mithras LB 940 microplate reader (Berthold Technologies, Bad Wildbad, Germany) and light emission (Ca^2+ response recorded for 30 s). Cells were then lysed by injection of 50 µl per well 0.3% Triton-X in BSA medium, and light emission recorded for a further 10 s to measure total Ca^2+ response. […]

crustacean cardioactive peptide [CCAP, reference compound]
Effect on heartbeat amplitude [1]: increased amplitude | Effect on heartbeat frequency (heart rate) [1]: more than doubled

AGCKNFFWKTFTSC [somatostatin, vertebrate homolog/paralog of AST-C, reference compound]
Activation of AST-CRd at saturating doses (AST-CRd (TR71151); 10, 1 µmol l^−1 peptide, quadruplicate): failed to activate; also recorded: without effect

molt inhibiting hormone [reference compound]
Effect on ecdysteroid synthesis by Y-organs (Y-organs): large inhibitory effect | Effect on ecdysteroid synthesis by Y-organs (Y-organs; listed as MIH): full inhibition

SYWKQCAFNAVSCF-NH2 (disulfide 6-13 (inferred)) [AST-CCC, C. maenas AST-C family neuropeptide, C-terminally amidated; synthetic (GenScript)]
Activation of AST-CRd at extremely high doses (AST-CRd (TR71151); 10^−6 mol l^−1): slight activation | Luminescence response relative to the maximum response elicited by 10 µmol l^−1 AST-CC (AST-CRd (TR71151); peptide at 10 µmol l^−1, quadruplicate): less than 20% | Activation of the other candidate AST-C receptors [2]: not activated | Effect on heartbeat amplitude [1]: entirely unaffected | Effect on heartbeat frequency (heart rate) [1]: entirely unaffected

Reference: article PMC11959706, “Allatostatin-C signaling in the crab Carcinus maenas is implicated in the ecdysis program” (The Journal of Experimental Biology, 2025)
